Assays:
LYN = experiment: Phosphorylation kinetics of LYN in RAMOS cells after BCR triggering (immunoblot); assay type: cell-based, human; conditions: LTV-1 5 μg/mL
Method: (§1) FIG. 40A depicts the phosphorylation of SHIP1, Lyn and ERK1/2 in total cell lysates of Ramos B cells treated or not with the PTPN22 inhibitor LTV-1 (5 μg/mL) for the indicated times. The cells were subjected to immunoblot analysis of P-LYN P-SHIP1, P-ERK1/2, and β-ACTIN. FIG. 40B depicts flow cytometry analysis of calcium flux of Ramos B cells treated or not with the PTPN22 inhibitor LTV-1 (5 μg/mL) for the indicated times followed by stimulation with anti-IgM F(ab′)2 at the indicated concentrations. FIG. 40C depicts flow cytometry analysis of calcium flux of splenocyte cells treated or not with LTV-1 (0.75 mg) twice daily for 7 days and stimulated with anti-IgM F(ab′)2 (25 μg/mL). FIG. 40D depicts flow cytometry analysis of calcium flux of splenocyte expressing PTPN22 shRNA and stimulated with anti-IgM F(ab′)2 (25 μg/mL).
(§2) However, downstream ERK phosphorylation was not affected by PTPN22 inhibition (FIG. 40A). Since PTPN22 inhibition enhanced TCR signaling in Jurkat cell line, it was investigated if PTPN22 blockade may also increase BCR signaling and calcium flux induced by BCR triggering was measured in RAMOS cells in the presence or not of LTV-1. Calcium flux was increased by PTPN22 inhibition, especially at lower concentration of BCR triggering agent (FIG. 40B). […]

SHIP1 = experiment: Phosphorylation kinetics of SHIP1 in RAMOS cells after BCR triggering (immunoblot); assay type: cell-based, human; conditions: LTV-1 5 μg/mL
Method: as §1, §2

PTPN22 [1] = biological target: T1, PTPN22 (Homo sapiens, UniProt Q9Y2R2); conditions: Vang et al., 2012; cited from earlier work
T1 construct: host or cells: T cells (not further specified)
T1 sequence (Q9Y2R2 1-807): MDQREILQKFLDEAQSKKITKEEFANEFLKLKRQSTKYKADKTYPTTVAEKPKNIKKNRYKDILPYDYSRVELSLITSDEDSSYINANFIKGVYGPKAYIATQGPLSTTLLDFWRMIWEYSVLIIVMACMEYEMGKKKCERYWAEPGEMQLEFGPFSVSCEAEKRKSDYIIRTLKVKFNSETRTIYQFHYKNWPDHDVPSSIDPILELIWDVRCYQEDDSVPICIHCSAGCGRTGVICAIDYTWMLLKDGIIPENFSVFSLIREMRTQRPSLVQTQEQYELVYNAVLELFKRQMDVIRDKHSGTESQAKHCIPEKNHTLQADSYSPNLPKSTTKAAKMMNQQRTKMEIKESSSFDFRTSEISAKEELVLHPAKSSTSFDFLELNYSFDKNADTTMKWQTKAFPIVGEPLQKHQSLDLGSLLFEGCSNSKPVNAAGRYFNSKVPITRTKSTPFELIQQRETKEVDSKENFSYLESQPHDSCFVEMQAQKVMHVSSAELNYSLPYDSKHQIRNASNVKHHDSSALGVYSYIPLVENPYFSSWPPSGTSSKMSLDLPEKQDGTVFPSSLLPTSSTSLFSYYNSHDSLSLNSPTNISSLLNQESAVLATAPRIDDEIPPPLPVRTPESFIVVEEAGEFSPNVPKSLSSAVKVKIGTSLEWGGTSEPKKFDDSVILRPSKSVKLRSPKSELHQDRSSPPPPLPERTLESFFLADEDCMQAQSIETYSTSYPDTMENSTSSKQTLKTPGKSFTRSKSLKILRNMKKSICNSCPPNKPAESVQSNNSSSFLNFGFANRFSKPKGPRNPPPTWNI

PTPN22 [2] = experiment: PTPN22 protein expression in GFP+ shRNA+ developing B cells from spleen of NSG mice; assay type: in vivo, human; conditions: GFP+ vs GFP- hCD19+ cells from spleen of NSG mice
Description: FIG. 9A depicts a schematic of the experimental design. CD34+ HSCs carrying PTPN22 T allele(s) were transduced with lentiviruses allowing the expression of PTPN22 shRNA before injection in the liver of 3 day-old NSG mice. FIG. 9B depicts representative flow cytometry analysis of CD19+ cells isolated from the spleen of NSG mouse engrafted with PTPN22 C/T HSCs transduced with a GFP-tagged lentivirus expressing PTPN22 specific shRNA. CD19+ B cells were stained with anti-hCD19, anti-IgM and anti-hCD10 antibodies. The frequencies of GFP− and GFP+ shRNA+ new emigrant B cells are shown. […] The frequencies of polyreactive new emigrant B cells from sorted GFP+ fractions expressing PTPN22 shRNA were determined and compared to those of GFP− new emigrant B cells. […] The frequencies of HEp-2 reactive new emigrant B cells from sorted GFP+ fractions expressing PTPN22 shRNA were determined and compared to those of GFP− new emigrant B cells. […]
Total cell lysates were separated by SDS page, transferred to PVDF membranes, probed with mouse anti-PTPN22 (Invitrogen) and detected by chemiluminescence (Amersham ECL Prime Western Blotting detection Reagent) using a GBox documentation system (Syngene). For quantification, blots were stripped with stripping buffer (Pierce) and reprobed with a mouse anti-β-Actin antibody (Sigma-Aldrich).

Compound | phosphorylation of LYN at position Y396 (LYN) | phosphorylation of SHIP1 at position Y2010 (SHIP1) | PTPN22 enzymatic activity in T cells in vitro (PTPN22 [1]) | decrease of PTPN22 expression in developing B cells (PTPN22 [2])
Cc1ccccc1N1C(=O)/C(=C/c2ccc(OCc3cccc(C(=O)O)c3)cc2)C(=O)NC1=S [LTV-1] | decreases | decreases | can be inhibited | –
shRNA #1: shRNA targeting human PTPN22, 5′-CTAGTGCTCTTGGTGTATATT-3′, delivered by GFP-tagged lentivirus | – | – | – | more than 90%

Source: US11311543B2, “Compositions and methods for inhibiting PTPN22” (YALE UNIVERSITY, priority 2016, dated 2022)
